Like-named read-outs stand apart in the source and are kept apart here.
Assays:
[1] = oral, estimated, from literature; cited from earlier work
CYP2C9 and CYP2C19 = conditions: cited from earlier work
[2] = Pharmacokinetics (PK) in mouse, I.V. and oral; assay type: in vivo, CD-1 mice
Protocol: PK tests were performed with CD-1 mice, using 4 animals per molecule tested, 2 animals for pharmacokinetic analysis by intravenous (IV) administration and 2 animals for oral administration. The treatment was carried out in a single dose: I.V. group with dose of 1 mg/kg and Oral group with dose of 10 mg/kg. […] Blood collection was performed after euthanasia at 08 defined time points and at 24 hours post-dose. The pharmacokinetic analysis parameters detected for Group IV were: half-life (t½), drug concentration at time zero (C0), last measurable plasma concentration (AUClast), area under the plasma concentration curve extrapolation percentage (AUC % ext), area under the plasma concentration curve extrapolation to infinity (AUCinf), volume of distribution (Vz), steady state volume of distribution (Vss), clearance (CL) and mean residence time (MRT). The parameters evaluated for the Oral group were: bioavailability (F %), maximum concentration reached (Cmax), time to reach maximum plasma concentration (Tmax), last measurable plasma concentration (AUClast), area under the plasma concentration curve extrapolation percentage (AUC % ext), area under the plasma concentration curve extrapolation to infinity (AUCinf), area under the plasma concentration curve extrapolation to infinity versus dose (AUCinf/Dose), half-Life (t½), and mean residence time (MRT).

[3] = biological target: P450 cytochrome 1A2 (CYP1A2) (Homo sapiens (Human), UniProt P05177); conditions: cited from earlier work
Sequence of P450 cytochrome 1A2 (CYP1A2) (P05177 whole entry): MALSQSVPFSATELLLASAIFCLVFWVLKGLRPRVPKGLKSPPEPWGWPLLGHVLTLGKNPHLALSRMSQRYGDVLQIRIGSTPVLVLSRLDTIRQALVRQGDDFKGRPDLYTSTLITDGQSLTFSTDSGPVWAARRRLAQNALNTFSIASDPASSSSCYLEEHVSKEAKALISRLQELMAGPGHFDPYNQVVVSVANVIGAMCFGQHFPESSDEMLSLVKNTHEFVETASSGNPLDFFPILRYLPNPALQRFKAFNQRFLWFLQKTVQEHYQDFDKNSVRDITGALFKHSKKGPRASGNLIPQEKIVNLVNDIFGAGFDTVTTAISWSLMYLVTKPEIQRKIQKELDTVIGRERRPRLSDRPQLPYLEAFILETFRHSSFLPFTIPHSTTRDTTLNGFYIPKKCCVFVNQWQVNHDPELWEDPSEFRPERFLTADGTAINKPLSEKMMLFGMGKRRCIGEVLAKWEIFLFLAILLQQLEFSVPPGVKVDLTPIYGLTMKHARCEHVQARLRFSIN

[4] = Pharmacokinetics (PK) in rat, I.V. and oral; assay type: in vivo, Wistar-Han rats
Protocol: […] The study lasted for 2 weeks (including acclimation time and study), in which the route of administration was made by injection into the caudal vein and oral gavage. The treatment was carried out in a single dose: I.V. group with dose of 1 mg/kg and Oral group with dose of 10 mg/kg. […] Clinical observations were made twice a day (morning and afternoon) in the pre-dose at the 08 time points defined in the protocol. Blood collection was performed after euthanasia in the pre-dose animals at 08 defined time points and at 24 hours post-dose. The pharmacokinetic analysis parameters detected for Group IV were: half-life (t½), drug concentration at time zero (C0), last measurable plasma concentration (AUClast), area under the plasma concentration curve extrapolation percentage (AUC % ext), area under the plasma concentration curve extrapolation to infinity (AUCinf), volume of distribution (Vz), steady state volume of distribution (Vss), clearance (CL) and mean residence time (MRT). The parameters evaluated for the Oral group were: bioavailability (F %), maximum concentration reached (Cmax), time to reach maximum plasma concentration (Tmax), last measurable plasma concentration (AUClast), area under the plasma concentration curve extrapolation percentage (AUC % ext), area under the plasma concentration curve extrapolation to infinity (AUCinf), area under the plasma concentration curve extrapolation to infinity versus dose (AUCinf/Dose), half-Life (t½), and mean residence time (MRT).

[5] = CD-1, plasma, intravenous 1 mg/kg
[6] = oral 10 mg/kg vs intravenous 1 mg/kg
[7] = Wistar-Han, plasma, intravenous 1 mg/kg

C0 [2, 5]: 811 ng/mL
clearance [2, 5]: 116 mL/min/kg
half-life [2, 5]: 8.94 min
AUC(0-t) ([2]; CD-1, plasma, oral 10 mg/kg): 30.3 ng·h/mL
bioavailability ([2]; CD-1, plasma, oral 10 mg/kg vs intravenous 1 mg/kg, read-out: F (%) bioavailability): 2.42%
Cmax ([2]; CD-1, plasma, oral 10 mg/kg, read-out: Cmax): 21.9 ng/mL
Tmax ([2]; CD-1, plasma, oral 10 mg/kg, read-out: Tmax): 15 min
Cmax ([2]; oral 10 mg/kg): 21.9 ng/mL
Tmax ([2]; oral 10 mg/kg): 15 min
F (%) bioavailability [2, 6]: 2.42%
clearance [4, 7]: 39.1 mL/min/kg
half-life [4, 7]: 17.7 min
AUC(0-t) ([4]; Wistar-Han, plasma, oral 10 mg/kg): 1020 ng·h/mL
bioavailability ([4]; Wistar-Han, plasma, oral 10 mg/kg vs intravenous 1 mg/kg, read-out: F (%) bioavailability): 22.6%
CL ([4]; intravenous 1 mg/kg): 39.1 mL/min/kg
T1/2 ([4]; intravenous 1 mg/kg): 17.7 min
AUClast ([4]; oral 10 mg/kg): 1025 ng·h/mL
F (%) bioavailability [4, 6]: 22.6%
SMILES: COc1ccc2cccc(CCNC(C)=O)c2c1 [IA2-76, agomelatine, reference compound]
absolute bioavailability [1]: 1%
share metabolized by CYP2C9 and CYP2C19 (CYP2C9 and CYP2C19): 10%
share metabolized in the liver by CYP1A2 [3]: Around 90%
